In patent US20160160294A1, “METHODS AND MATERIALS FOR PREDICTING RESPONSE TO NIRAPARIB” (Tesaro, priority 2014, published 2016):
Read-outs that look alike come from different tables or passages of the source.

Legend:
[1] = system: ovarian cancer PDX models
Method: A series of ovarian tumors were implanted orthotopically in mice and the resulting patient-derived xenograft (PDX) models were evaluated for niraparib sensitivity by ultrasound imaging. The BRCA status (mutated “BRCAmut” or wild-type “BRCAwt”) of each PDX model was evaluated, with BRCA1/2 variants identified by the test were classified in accordance with the recommendations of the American College of Medical Genetics and Genomics (ACMG) for standards in the interpretation and reporting of sequence variations. HRD scores were also determined for the PDX models as described in Examples 1 & 2.

[2] = system: TNBC patient-derived xenograft (PDX) models
Method: Mice were assigned to homogeneous groups of 10 animals when tumors reached a size of 70-200 mm^3, and were treated with niraparib at 50 mg/kg or 75 mg/kg once a day for 28 days. The compound was delivered by gavage (p.o) under a volume of […] for a 25-g mouse. Tumor volume was evaluated by measuring biweekly tumor diameters with a caliper.

[3] = system: basal breast cancer (BBC) patient-derived xenograft (PDX) models; settings: subset of BBC PDX models; cited from earlier work

For `NC(=O)c1cccc2cn(-c3ccc([C@@H]4CCCNC4)cc3)nc12` [niraparib], the Response rate ([1]; All models (8/26)) was 31% (8/26), the Response rate ([1]; BRCA1/2 deficient models (4/8)) was 50% (4/8) and the Response rate ([1]; HRD+ BRCA wt models (4/8)) was 50% (4/8). The “effect on tumor volume” value ([2]; T330 model (FIG. 8)) was “regression of tumor volume”, the “number of TNBC PDX models whose growth was significantly inhibited” value ([2]; among 20 tested, 50 mg/kg or 75 mg/kg once a day for 28 days, p.o.) was 6 and the “activity in TNBC PDX models” value ([2]; subset of TNBC PDX models) was “robust activity”. For the same molecule, the “response of BBC PDX models to single agent treatment” value [3] was “responded robustly”.
